Source: PubChem BioAssay (NCI)
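Exposure lasted 48 hours, with cells grown in 96-well plates and compounds tested at five concentrations. Here, GI50 denotes the concentration required for 50% inhibition of growth. TGI: total growth inhibition.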

How the values were obtained:
Assay in all cases: NCI tumour cell line growth inhibition, 48 h
OVCAR-8 ovarian = tested on: OVCAR-8 ovarian
CCRF-CEM leukemia = tested on: CCRF-CEM leukemia
SF-268 CNS = tested on: SF-268 CNS
MDA-MB-468 breast = tested on: MDA-MB-468 breast
EKVX NSCLC = tested on: EKVX NSCLC
MALME-3M melanoma = tested on: MALME-3M melanoma
SK-MEL-5 melanoma = tested on: SK-MEL-5 melanoma
RXF 393 renal = tested on: RXF 393 renal
MDA-MB-231 breast = tested on: MDA-MB-231 breast
DU-145 prostate = tested on: DU-145 prostate
KM12 colon = tested on: KM12 colon
TK-10 renal = tested on: TK-10 renal
MDA-MB-435 = tested on: MDA-MB-435
HCT-116 colon = tested on: HCT-116 colon
NCI-H226 lung = tested on: NCI-H226 lung
SK-MEL-28 melanoma = tested on: SK-MEL-28 melanoma
HOP-92 NSCLC = tested on: HOP-92 NSCLC
NCI-H522 lung = tested on: NCI-H522 lung
A549 NSCLC = tested on: A549 NSCLC
M14 melanoma = tested on: M14 melanoma
HOP-62 NSCLC = tested on: HOP-62 NSCLC
SR leukemia = tested on: SR leukemia
IGROV1 ovarian = tested on: IGROV1 ovarian
CAKI-1 renal = tested on: CAKI-1 renal
SF-295 CNS = tested on: SF-295 CNS
BT-549 breast = tested on: BT-549 breast
HL-60(TB) leukemia = tested on: HL-60(TB) leukemia
OVCAR-4 ovarian = tested on: OVCAR-4 ovarian
UO-31 renal = tested on: UO-31 renal
NCI/ADR-RES ovarian = tested on: NCI/ADR-RES ovarian
SK-MEL-2 melanoma = tested on: SK-MEL-2 melanoma
COLO 205 colon = tested on: COLO 205 colon
786-0 renal = tested on: 786-0 renal
SW-620 colon = tested on: SW-620 colon
HS 578T breast = tested on: HS 578T breast
PC-3 prostate = tested on: PC-3 prostate
SN12C renal = tested on: SN12C renal
NCI-H460 lung = tested on: NCI-H460 lung
ACHN renal = tested on: ACHN renal
HCC-2998 colon = tested on: HCC-2998 colon
UACC-62 melanoma = tested on: UACC-62 melanoma
SNB-19 CNS = tested on: SNB-19 CNS
UACC-257 melanoma = tested on: UACC-257 melanoma
U251 CNS = tested on: U251 CNS
RPMI-8226 leukemia = tested on: RPMI-8226 leukemia
LOX IMVI melanoma = tested on: LOX IMVI melanoma
T-47D breast = tested on: T-47D breast
K-562 leukemia = tested on: K-562 leukemia
OVCAR-3 ovarian = tested on: OVCAR-3 ovarian
SK-OV-3 ovarian = tested on: SK-OV-3 ovarian
HT29 colon = tested on: HT29 colon
MCF7 breast = tested on: MCF7 breast
SNB-75 CNS = tested on: SNB-75 CNS
OVCAR-5 ovarian = tested on: OVCAR-5 ovarian
HCT-15 colon = tested on: HCT-15 colon
A498 renal = tested on: A498 renal
SF-539 CNS = tested on: SF-539 CNS
NCI-H23 lung = tested on: NCI-H23 lung

CC/C(=C(/c1ccc(O)cc1)c1ccc(OCCN(C)C(=O)COCCOCCNC(=O)Cc2ccc3c(c2)CN([C@@H]2CCC(=O)NC2=O)C3=O)cc1)c1ccccc1
GI50 (OVCAR-8 ovarian): 0.939 µM | TGI (OVCAR-8 ovarian): > 100 µM | GI50 (CCRF-CEM leukemia): 0.132 µM | TGI (CCRF-CEM leukemia): > 100 µM | GI50 (SF-268 CNS): 3 µM | TGI (SF-268 CNS): > 100 µM | GI50 (MDA-MB-468 breast): < 0.0167 µM | TGI (MDA-MB-468 breast): 0.214 µM | TGI (EKVX NSCLC): > 100 µM | GI50 (MALME-3M melanoma): 0.112 µM | TGI (MALME-3M melanoma): 1.01 µM | GI50 (SK-MEL-5 melanoma): 7.88 µM | TGI (SK-MEL-5 melanoma): > 28.2 µM | GI50 (RXF 393 renal): 3.25 µM | TGI (RXF 393 renal): > 30.7 µM | GI50 (MDA-MB-231 breast): 0.0438 µM | TGI (MDA-MB-231 breast): 0.173 µM | GI50 (DU-145 prostate): > 53 µM | TGI (DU-145 prostate): > 100 µM | GI50 (KM12 colon): 2.98 µM | TGI (KM12 colon): > 47.3 µM | GI50 (TK-10 renal): > 100 µM | TGI (TK-10 renal): > 100 µM | GI50 (MDA-MB-435): 15.7 µM | TGI (MDA-MB-435): > 50.7 µM | GI50 (HCT-116 colon): > 46.9 µM | TGI (HCT-116 colon): > 84 µM | GI50 (NCI-H226 lung): 1.68 µM | TGI (NCI-H226 lung): > 44.4 µM | GI50 (SK-MEL-28 melanoma): 6.19 µM | TGI (SK-MEL-28 melanoma): > 44 µM | GI50 (HOP-92 NSCLC): 0.0677 µM | TGI (HOP-92 NSCLC): 1.8 µM | GI50 (NCI-H522 lung): > 33.1 µM | TGI (NCI-H522 lung): > 53.1 µM | GI50 (A549 NSCLC): > 34.7 µM | TGI (A549 NSCLC): > 100 µM | GI50 (M14 melanoma): 7.95 µM | TGI (M14 melanoma): > 100 µM | GI50 (HOP-62 NSCLC): 1.12 µM | TGI (HOP-62 NSCLC): 10.1 µM | GI50 (SR leukemia): 10 µM | TGI (SR leukemia): > 44.9 µM | GI50 (IGROV1 ovarian): 0.166 µM | TGI (IGROV1 ovarian): > 24.8 µM | GI50 (CAKI-1 renal): > 26.8 µM | TGI (CAKI-1 renal): > 100 µM | GI50 (SF-295 CNS): > 31.3 µM | TGI (SF-295 CNS): > 100 µM | GI50 (BT-549 breast): 0.0554 µM | TGI (BT-549 breast): 0.509 µM | GI50 (HL-60(TB) leukemia): < 0.0208 µM | GI50 (OVCAR-4 ovarian): 13.6 µM | TGI (OVCAR-4 ovarian): > 100 µM | GI50 (UO-31 renal): > 100 µM | TGI (UO-31 renal): > 100 µM | GI50 (NCI/ADR-RES ovarian): > 100 µM | TGI (NCI/ADR-RES ovarian): > 100 µM | GI50 (SK-MEL-2 melanoma): 1.14 µM | TGI (SK-MEL-2 melanoma): 9.32 µM | GI50 (COLO 205 colon): 0.702 µM | TGI (COLO 205 colon): 8.99 µM | GI50 (786-0 renal): 25.6 µM | TGI (786-0 renal): > 100 µM | GI50 (SW-620 colon): 0.49 µM | TGI (SW-620 colon): > 40.1 µM | GI50 (HS 578T breast): 0.427 µM | TGI (HS 578T breast): > 25.2 µM | GI50 (PC-3 prostate): 0.407 µM | TGI (PC-3 prostate): > 100 µM | GI50 (SN12C renal): 1.01 µM | TGI (SN12C renal): > 43 µM | GI50 (NCI-H460 lung): > 56.7 µM | TGI (NCI-H460 lung): > 100 µM | GI50 (ACHN renal): > 100 µM | TGI (ACHN renal): > 100 µM | GI50 (HCC-2998 colon): 2.16 µM | TGI (HCC-2998 colon): > 35.3 µM | GI50 (UACC-62 melanoma): > 31.3 µM | TGI (UACC-62 melanoma): > 54.1 µM | GI50 (SNB-19 CNS): 1.11 µM | TGI (SNB-19 CNS): > 87 µM | GI50 (UACC-257 melanoma): > 44.7 µM | TGI (UACC-257 melanoma): > 76 µM | GI50 (U251 CNS): > 35.3 µM | TGI (U251 CNS): > 74.7 µM | GI50 (RPMI-8226 leukemia): 3.35 µM | TGI (RPMI-8226 leukemia): > 32.3 µM | GI50 (LOX IMVI melanoma): > 37.1 µM | TGI (LOX IMVI melanoma): > 59.9 µM | GI50 (T-47D breast): < 0.0166 µM | TGI (T-47D breast): 1.48 µM | GI50 (K-562 leukemia): 7.91 µM | TGI (K-562 leukemia): > 100 µM | GI50 (OVCAR-3 ovarian): 10.3 µM | TGI (OVCAR-3 ovarian): > 53 µM | GI50 (SK-OV-3 ovarian): 3.57 µM | TGI (SK-OV-3 ovarian): > 100 µM | GI50 (HT29 colon): > 29.8 µM | TGI (HT29 colon): > 100 µM | GI50 (MCF7 breast): < 0.0192 µM | TGI (MCF7 breast): > 40 µM | GI50 (SNB-75 CNS): 0.0486 µM | TGI (SNB-75 CNS): 13.9 µM | GI50 (OVCAR-5 ovarian): 13 µM | TGI (OVCAR-5 ovarian): > 100 µM | GI50 (HCT-15 colon): > 28 µM | TGI (HCT-15 colon): > 100 µM | GI50 (A498 renal): > 100 µM | TGI (A498 renal): > 100 µM | GI50 (SF-539 CNS): > 32.6 µM | TGI (SF-539 CNS): > 49.2 µM | GI50 (NCI-H23 lung): > 40.6 µM | TGI (NCI-H23 lung): > 68.9 µM
